Assay results taken from patent publication EP4644389A1, “PRMT5-MTA INHIBITOR” (Suzhou Puhe Biopharma Co., Ltd., priority 2022, dated 2024).
Like-named read-outs stand apart in the source and are kept apart here.

Legend:
[1] = tested on: HCT116-MTAPdel; assay: 2D anti-proliferation assay (CTG luminescence), MTAP-deficient HCT116 cells; type: cell-based; conditions: for IC50: Homo sapiens; for HCT116 WT/MTAPdel Selectivity: ratio of IC50 HCT116 WT / MTAPdel
Description: (§1) HCT116 wild-type and MTAP-deficient cells were cultured in MCCOYS 5A medium containing 10% FBS and 1% penicillin-streptomycin and incubated in a 37°C, 5% CO2 incubator. A 40 µL cell suspension was added to each well of a 384-well microplate. Using Echo, 40 nL of the compound at different concentrations were added to each well, followed by incubation in a 37°C, 5% CO2 incubator for 7-10 days. 40 µL of CTG solution (Promega, Cat No. G7573) was added to each well and incubated away from light in a 37°C, 5% CO2 incubator for 30 minutes. Luminescence was measured using an Envision multimode plate reader (Perkin Elmer, Catalog No. Envision 2104). The luminescence signal was proportional to the ATP content in the system, and the ATP content directly reflected the number of viable cells in the system.

[2] = tested on: HCT116-MTAPwt; assay: 2D anti-proliferation assay (CTG luminescence), wild-type HCT116 cells; type: cell-based; conditions: Homo sapiens, HCT-116, 7-10 days incubation
Description: By testing the activity of both of them, the inhibitory effect and selectivity of the molecules of the present invention for PRMT5 at the cellular level were shown.
as §1
ICso value calculation: [formula] • X: Log value of compound concentration • Y: Inhibition rate (%) Table 1: 2D Anti-proliferation Effects of Compounds on HTC116-MTAP del and Wild-type Colorectal Cancer HCT-116 Cell Lines.

[3] = HCT-116, HCT116 MTAP-deficient cells, 7-10 days incubation, CTG, read-out: HCT116-MTAPdel/IC50/nM
[4] = HCT-116, read-out: HCT116-MTAPdel/IC50/nM

Compound	IC50 [1, 3]	IC50 [2]	HCT116 WT/MTAPdel Selectivity [1]	selectivity ([1]; HCT116 WT vs MTAP-deleted)	IC50 [1, 4]
Cc1c(C2CC2)c(N)nc2cc(F)c(C(=O)N(C)C3COCc4nc(C(F)(F)F)ccc43)cc12 (stereo not shown) [Compound H6]	33 nM	532 nM	16		
CN(C(=O)c1ccc2nc(N)c(C3CC3)cc2c1)C1COc2cc(C(F)(F)F)ccc21 (racemic) [Compound H1]	4250 nM	> 10000 nM	>2		
CN(C(=O)c1ccc2nc(N)c(C3CC3)cc2c1)C1COc2cc(-c3cnn(C)c3)ccc21 (racemic) [Compound H4]	4350 nM	> 10000 nM	>3		
Cc1c(CO)c(N)nc2cc(F)c(C(=O)N(C)[C@H]3COCc4nc(-c5cncc(F)c5)ccc43)cc12 (racemic) [Compound A12]	36 nM	3250 nM	90		
Cc1c(CO)c(N)nc2cc(F)c(C(=O)N3CC(C)CCC3c3ccc4scnc4c3)cc12 (racemic) [Compound A7]	88 nM	3880 nM	44		
Cc1c(CO)c(N)nc2cc(F)c(C(=O)N3CC(C)CCC3c3ccc4ncsc4c3)cc12 (racemic) [Compound A8]	150 nM	2000 nM	13		
Cc1c(CO)c(N)nc2cc(F)c(C(=O)N(C)[C@H]3COCc4nc(-c5cncc(Cl)c5)ccc43)cc12 (racemic) [Compound A11]	26 nM	4380 nM	168		
Cc1cc(NC(=O)C(=O)N2C[C@@H](C)CC[C@@H]2c2ccc3scnc3c2)cnc1N [TNG908, reference compound]		1230 nM	23	23 fold	54 nM
Cc1c(CO)c(N)nc2cc(F)c(C(=O)N(C)[C@H]3COCc4nc(-c5cncc(C(F)(F)F)c5)ccc43)cc12 (racemic) [Compound A13]	32 nM	3750 nM	117		
CN(C(=O)c1ccc2nc(N)c(C3CC3)cc2c1)C1COc2cc(OC(F)(F)F)ccc21 (stereo not shown) [Compound H2]	6290 nM	> 10000 nM	>1		
Cc1c(CO)c(N)nc2cc(Cl)c(C(=O)N3[C@@H](C)COC[C@H]3c3ccc(C(F)(F)F)cn3)cc12 [Compound A2a]	3030 nM	> 10000 nM	>3		
CN(C(=O)c1ccc2nc(N)c(C3CC3)cc2c1)C1COCc2nc(C(F)(F)F)ccc21 (stereo not shown) [Compound H3]	926 nM	> 10000 nM	>11		
CN(C(=O)c1ccc2nc(N)c(C3CC3)cc2c1)C1COc2cc(-c3cnn(C(F)(F)F)c3)ccc21 (stereo not shown) [Compound H5]	2960 nM	8020 nM	3		
Cc1cc2cc(C(=O)N(Cc3ccc(C(F)(F)F)cn3)[C@H](C)c3ncccn3)ccc2nc1N [AM9747, reference compound]		237 nM			7 nM
Cc1c(CO)c(N)nc2cc(F)c(C(=O)N3C(C)COCC3c3ccc(-c4cncc(Cl)c4)cn3)cc12 (racemic) [Compound A4]	7 nM	1140 nM	164		
Cc1c(CO)c(N)nc2cc(F)c(C(=O)N3C(C)COCC3c3ccc(-c4cncc(F)c4)cn3)cc12 (racemic) [Compound A3]	5 nM	1450 nM	291		
Cc1c(CO)c(N)nc2cc(F)c(C(=O)N3C(C)COCC3c3ccc(OC(F)(F)F)cc3)cc12 (racemic) [Compound A5]	18 nM	1360 nM	75		
Cc1c(CO)c(N)nc2cc(Cl)c(C(=O)N3[C@H](C)COC[C@@H]3c3ccc(C(F)(F)F)cn3)cc12 [Compound A2b]	4 nM	398 nM	100		
Cc1c(CO)c(N)nc2cc(F)c(C(=O)N3C(C)COCC3c3ccc(C(F)(F)F)cc3)cc12 (racemic) [Compound A6]	7 nM	1020 nM	145		
Cc1c(C2CC2)c(N)nc2cc(Cl)c(C(=O)N(C)C3COCc4nc(C(F)(F)F)ccc43)cc12 (stereo not shown) [Compound H7]	29 nM	1110 nM	38		

Continued, in another order:

IC50 [1, 3]	IC50 [2]	Compound	HCT116 WT/MTAPdel Selectivity [1]	selectivity ([1]; HCT116 WT vs MTAP-deleted)	IC50 [1, 4]
34 nM	1860 nM	Cc1c(C2CC2)c(N)nc2cc(F)c(C(=O)N3[C@@H](C)COC[C@H]3c3ccc(-c4cncc(C(F)(F)F)c4)cn3)cc12 [Compound P10]	55		
2540 nM	3800 nM	Cc1c(C2CC2)c(N)nc2cc(Cl)c(C(=O)N3[C@@H](C)COC[C@H]3c3ccc(C(F)(F)F)cn3)cc12 [Compound P7b]	2		
156 nM		C[C@H]1COC[C@@H](c2ccc(OC(F)(F)F)cc2)N1C(=O)c1cc2cc(C3CC3)c(N)nc2cc1Cl [Compound P6]			
230 nM	1640 nM	Cc1c(C2CC2)c(N)nc2cc(Cl)c(C(=O)N3[C@H](C)COC[C@@H]3c3ccc(C(F)(F)F)cn3)cc12 [Compound P7a]	7		
93 nM	> 10000 nM	C[C@H]1COC[C@@H](c2ccc(C(F)(F)F)cn2)N1C(=O)c1cc2cc(C3CC3)c(N)nc2cc1F [Compound P2]	>108		
17 nM	72 nM	CC(=O)N1CCC(Nc2cc(C(=O)NC[C@H](O)CN3CCc4ccccc4C3)ncn2)CC1 [GSK3326595, reference compound]	4		
612 nM	> 10000 nM	CC(C)N1CCN(c2ccc([C@@H]3COC[C@H](C)N3C(=O)c3cc4cc(C5CC5)c(N)nc4cc3F)cc2)CC1 [Compound P5]	>16		
790 nM	> 10000 nM	C[C@H]1COC[C@@H](c2ccc(C(F)(F)F)cn2)N1C(=O)c1ccc2nc(N)c(C3CC3)cc2c1 [Compound P4]	>13		
96 nM	> 10000 nM	C[C@H]1COC[C@@H](c2ccc(OC(F)F)nn2)N1C(=O)c1cc2cc(C3CC3)c(N)nc2cc1F [Compound P8]	>104		
16 nM	936 nM	Cc1c(C2CC2)c(N)nc2cc(F)c(C(=O)N3[C@@H](C)COC[C@H]3c3ccc(-c4cncc(Cl)c4)cn3)cc12 [Compound P9]	59		
2870 nM	> 10000 nM	Nc1nc2cc(F)c(C(=O)N3CCOCC3c3ccc(C(F)(F)F)cn3)cc2cc1C1CC1 (stereo not shown) [Compound P3]	>4		
